Laboratory results as given in patent publication US20240390340A1 (INCYTE CORPORATION, priority 2023, published 2024).

Key:
KRAS G12V = KRAS G12V (Homo sapiens, UniProt P01116, G12V); experiment: GDP-GTP exchange assay (bodipy-GDP/GppNHp, SOS1), KRAS G12V; type: biochemical; details: KRAS G12V mutant; value for the most potent isomer quoted for certain compounds; read-out: G12V (KRAS G12V exchange assay IC50)
Protocol: (§1) The inhibitor potency of the exemplified compounds was determined in a fluorescence based guanine nucleotide exchange assay, which measures the exchange of bodipy-GDP (fluorescently labeled GOP) for GppNHp (Non-hydrolyzable GTP analog) to generate the active state of KRAS in the presence of SOS1 (guanine nucleotide exchange factor). Inhibitors were serially diluted in DMSO and a volume of 0.1 μL was transferred to the wells of a black low volume 384-well plate. 5 μL/well volume of bodipy-loaded KRAS G12D diluted to 2.5 nM in assay buffer (25 mM Hepes pH 7.5, 50 mM NaCl, 10 mM MgCl2 and 0.01% Brij-35) was added to the plate and pre-incubated with inhibitor for 4 h at r.t. Appropriate controls (enzyme with no inhibitor or with a G12D inhibitor) were included on the plate. The exchange was initiated by the addition of a 5 μL/well volume containing 1 mM GppNHp and 300 nM SOS1 in assay buffer. The 10 μL/well reaction concentration of the bodipy-loaded KRAS G12D, GppNHp, and SOS1 were 2.5 nM, 500 μM, and 150 nM, respectively. The reaction plates were incubated at r.t. for 2 h, a time estimated for complete GDP-GTP exchange in the absence of inhibitor. For the KRAS G12V mutant, similar guanine nucleotide exchange assays were used with 2.5 nM as final concentration for the bodipy loaded KRAS proteins and 3 h incubation after adding GppNHp-SOS1 mixture. A cyclic peptide described to selectively bind G12D mutant (Sakamoto et al., BBRC 484.3 (2017), 605-611) or internal compounds with confirmed binding were used as positive controls in the assay plates. Fluorescence intensities were measured on a PheraStar plate reader instrument (BMG Labtech) with excitation at 485 nm and emission at 520 nm.
(§2) Either GraphPad prism or Genedata Screener SmartFit was used to analyze the data. The IC50 values were derived by fitting the data to a four parameter logistic equation producing a sigmoidal dose-response curve with a variable Hill coefficient.
(§3) The symbol “†” indicates IC50≤100 nM, “††” indicates IC50>100 nM but ≤1 μM; and “†††” indicates IC50 is >1 μM but ≤5 μM, “††††” indicates IC50 is >5 μM but ≤10 μM. “NA” indicates IC50 not available.

KRAS G12D = KRAS G12D (Homo sapiens, UniProt P01116, G12D); experiment: GDP-GTP exchange assay (bodipy-GDP/GppNHp, SOS1), KRAS G12D; type: biochemical; details: bodipy-loaded KRAS G12D 2.5 nM, 4 h pre-incubation; value for the most potent isomer quoted for certain compounds; read-out: G12D (KRAS G12D exchange assay IC50)
Protocol: as §1, §2, §3

Chain of KRAS G12D (P01116 1-188 isoform P01116-2 G12D): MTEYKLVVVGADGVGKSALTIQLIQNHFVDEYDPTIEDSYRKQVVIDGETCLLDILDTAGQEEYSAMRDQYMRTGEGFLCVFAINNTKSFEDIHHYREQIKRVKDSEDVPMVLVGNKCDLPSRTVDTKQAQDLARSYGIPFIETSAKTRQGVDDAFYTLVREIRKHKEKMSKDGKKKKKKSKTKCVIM
Chain of KRAS G12V (P01116 1-188 isoform P01116-2 G12V): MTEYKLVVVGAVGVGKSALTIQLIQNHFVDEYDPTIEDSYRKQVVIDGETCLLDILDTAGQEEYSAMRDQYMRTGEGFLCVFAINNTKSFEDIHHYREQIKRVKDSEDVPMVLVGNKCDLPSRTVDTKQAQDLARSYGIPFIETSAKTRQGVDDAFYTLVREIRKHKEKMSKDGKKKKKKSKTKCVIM

Structure (SMILES) | IC50 (KRAS G12V) [nM] | IC50 (KRAS G12D) [nM]
Cc1nc2c(F)c(-c3cccc(Cl)c3Cl)c(CCC#N)cc2c2c1cc([C@H]1C[C@H](Oc3cc(C(F)(F)F)nn3C)CN1C(=O)C1CC1)n2[C@H]1[C@H]2CN[C@@H]1C2 [Example 375] | ≤ 100 | ≤ 100
CCn1cc(CO[C@H]2C[C@H](c3cc4c(C)nc5c(F)c(-c6cccc(Cl)c6Cl)c(CCC#N)cc5c4n3[C@H]3[C@H]4CN[C@@H]3C4)N(C(=O)C3CC3)C2)nn1 [Example 231] | ≤ 100 | ≤ 100
Cc1nc2c(F)c(-c3cccc(Cl)c3Cl)c(CCC#N)cc2c2c1cc([C@H]1C[C@H](Oc3cccc4c3cnn4C)CN1C(=O)C1CC1)n2[C@H]1[C@H]2CN[C@@H]1C2 [Example 133] | ≤ 100 | ≤ 100
Cc1nc2c(F)c(-c3cccc(Cl)c3Cl)c(CCC#N)cc2c2c1cc([C@H]1C[C@H](n3cc(CCc4ccccc4)nn3)CN1C(=O)C1CC1)n2[C@H]1[C@H]2CN[C@@H]1C2 [Example 389] | ≤ 100 | ≤ 100
Cc1nc2c(F)c(-c3cccc(Cl)c3Cl)c(CCC#N)cc2c2c1cc([C@H]1C[C@H](n3cc(C4(C)CC4)nn3)CN1C(=O)C1CC1)n2[C@H]1[C@H]2CN[C@@H]1C2 [Example 224] | ≤ 100 | ≤ 100
Cc1nc2c(F)c(-c3cccc(Cl)c3Cl)c(CCC#N)cc2c2c1cc([C@H]1C[C@H](OC(=O)c3ccccc3)CN1C(=O)C1CC1)n2[C@H]1[C@H]2CN[C@@H]1C2 [Example 270] | – | ≤ 100
Cc1nc2c(F)c(-c3cccc(Cl)c3Cl)c(CCC#N)cc2c2c1cc([C@H]1C[C@H](Oc3ccnn3C)CN1C(=O)C1CC1)n2[C@H]1[C@H]2CN[C@@H]1C2 [Example 175] | ≤ 100 | ≤ 100
COC(=O)c1ccc(-c2nnn([C@H]3C[C@H](c4cc5c(C)nc6c(F)c(-c7cccc(Cl)c7Cl)c(CCC#N)cc6c5n4[C@H]4[C@H]5CN[C@@H]4C5)N(C(=O)C4CC4)C3)n2)cc1 [Example 435] | ≤ 100 | ≤ 100
Cc1nc2c(F)c(-c3cccc(Cl)c3Cl)c(CCC#N)cc2c2c1cc([C@H]1C[C@H](OCc3cn(C)nn3)CN1C(=O)C1CC1)n2[C@H]1[C@H]2CN[C@@H]1C2 [Example 100] | ≤ 100 | ≤ 100
CC(O)c1nc2c(F)c(-c3cccc(Cl)c3Cl)c(CCC#N)cc2c2c1cc([C@H]1C[C@H](OCc3ccc(F)cc3C#N)CN1C(=O)C1CC1)n2[C@H]1[C@H]2CN[C@@H]1C2 (stereo partly shown) [Example 178] | ≤ 100 | ≤ 100
[2H]C([2H])(O[C@H]1C[C@H](c2cc3c(C(C)O)nc4c(F)c(-c5cccc(Cl)c5Cl)c(CCC#N)cc4c3n2[C@H]2[C@H]3CN[C@@H]2C3)N(C(=O)C2CC2)C1)c1nscc1C (stereo partly shown) [Example 237] | ≤ 100 | ≤ 100
COC(=O)N1C[C@@H](Oc2ccccn2)C[C@@H]1c1cc2c(C)nc3c(F)c(-c4cccc(Cl)c4Cl)c(CCC#N)cc3c2n1[C@H]1[C@H]2CN[C@@H]1C2 [Example 162] | ≤ 100 | ≤ 100
Cc1nc2c(F)c(-c3cccc(Cl)c3Cl)c(CCC#N)cc2c2c1cc([C@H]1C[C@H](Oc3cncc4c3OCCC4)CN1C(=O)C1CC1)n2[C@H]1[C@H]2CN[C@@H]1C2 [Example 289] | ≤ 100 | ≤ 100
Cc1nc2c(F)c(-c3cccc(Cl)c3Cl)c(CCC#N)cc2c2c1cc([C@H]1C[C@H](Oc3cnccc3C#N)CN1C(=O)C1CC1)n2[C@H]1[C@H]2CN[C@@H]1C2 [Example 302] | ≤ 100 | ≤ 100
Cc1nc2c(F)c(-c3cccc(Cl)c3Cl)c(CCC#N)cc2c2c1cc([C@H]1C[C@H](OCc3ccc(Cl)cc3C#N)CN1C(=O)C1CC1)n2[C@H]1[C@H]2CN[C@@H]1C2 [Example 159] | ≤ 100 | ≤ 100
Cc1nc2c(F)c(-c3cccc(Cl)c3Cl)c(CCC#N)cc2c2c1cc([C@H]1C[C@H](Oc3cccc(C(=O)N4CCOCC4)c3)CN1C(=O)C1CC1)n2[C@H]1[C@H]2CN[C@@H]1C2 [Example 222] | ≤ 100 | ≤ 100
Cc1ccc(CO[C@H]2C[C@H](c3cc4c(C)nc5c(F)c(-c6cccc(Cl)c6Cl)c(CCC#N)cc5c4n3[C@H]3[C@H]4CN[C@@H]3C4)N(C(=O)C3CC3)C2)cc1 [Example 92] | ≤ 100 | ≤ 100

Structure (SMILES) | IC50 (KRAS G12V) [nM] | IC50 (KRAS G12D) [nM]
Cc1nc2c(F)c(-c3cccc(Cl)c3Cl)c(CCC#N)cc2c2c1cc([C@H]1C[C@H](OC[C@@H]3CCCN3)CN1C(=O)C1CC1)n2[C@H]1[C@H]2CN[C@@H]1C2 [Example 449] | ≤ 100 | ≤ 100
Cc1nc2c(F)c(-c3cccc(Cl)c3Cl)c(CCC#N)cc2c2c1cc([C@H]1C[C@H](Oc3ccccc3F)CN1C(=O)C1CC1)n2[C@H]1[C@H]2CN[C@@H]1C2 [Example 119] | ≤ 100 | ≤ 100
Cc1nc2c(F)c(-c3cccc(Cl)c3Cl)c(CCC#N)cc2c2c1cc([C@H]1C[C@H](n3cc(C4CC4)cn3)CN1C(=O)C1CC1)n2[C@H]1[C@H]2CN[C@@H]1C2 [Example 429] | ≤ 100 | ≤ 100
Cc1nc2c(F)c(-c3cccc(Cl)c3Cl)c(CCC#N)cc2c2c1cc([C@H]1C[C@H](OCc3nccs3)C(C)(C)N1C(=O)C1CC1)n2[C@H]1[C@H]2CN[C@@H]1C2 [Example 405] | ≤ 100 | ≤ 100
COC1CN(c2cc(O[C@H]3C[C@H](c4cc5c(C)nc6c(F)c(-c7cccc(Cl)c7Cl)c(CCC#N)cc6c5n4[C@H]4[C@H]5CN[C@@H]4C5)N(C(=O)C4CC4)C3)ccn2)C1 [Example 366] | ≤ 100 | ≤ 100
Cc1nnn([C@H]2C[C@H](c3cc4c(C)nc5c(F)c(-c6cccc(Cl)c6Cl)c(CCC#N)cc5c4n3[C@H]3[C@H]4CN[C@@H]3C4)N(C(=O)C3CC3)C2)n1 [Example 398] | ≤ 100 | ≤ 100
COC(=O)C1CCC(c2cn([C@H]3C[C@H](c4cc5c(C)nc6c(F)c(-c7cccc(Cl)c7Cl)c(CCC#N)cc6c5n4[C@H]4[C@H]5CN[C@@H]4C5)N(C(=O)C4CC4)C3)nn2)C1 (stereo partly shown) [Example 391] | ≤ 100 | ≤ 100
Cc1nc2c(F)c(-c3cccc(Cl)c3Cl)c(CCC#N)cc2c2c1cc([C@H]1C[C@H](n3cc([C@]45C[C@H](CN4)C5)nn3)CN1C(=O)C1CC1)n2[C@H]1[C@H]2CN[C@@H]1C2 [Example 274] | ≤ 100 | ≤ 100
Cc1nc2c(F)c(-c3cccc(Cl)c3Cl)c(CCC#N)cc2c2c1cc([C@H]1C[C@H](OC[C@@H]3CCOC3)CN1C(=O)C1CC1)n2[C@H]1[C@H]2CN[C@@H]1C2 [Example 373] | ≤ 100 | ≤ 100
Cc1nc2c(F)c(-c3cccc(Cl)c3Cl)c(CCC#N)cc2c2c1cc([C@H]1C[C@H](n3cc(C4(CF)CC4)nn3)CN1C(=O)C1CC1)n2[C@H]1[C@H]2CN[C@@H]1C2 [Example 381] | ≤ 100 | ≤ 100
Cc1nc2c(F)c(-c3cccc(Cl)c3Cl)c(CCC#N)cc2c2c1cc([C@H]1C[C@H](OCc3cc(F)ccc3C#N)CN1C(=O)C1CC1)n2[C@H]1[C@H]2CN[C@@H]1C2 [Example 157] | ≤ 100 | ≤ 100
Cc1ccn([C@H]2C[C@H](c3cc4c(C)nc5c(F)c(-c6cccc(Cl)c6Cl)c(CCC#N)cc5c4n3[C@H]3[C@H]4CN[C@@H]3C4)N(C(=O)C3CC3)C2)n1 [Example 315] | ≤ 100 | ≤ 100
N#CCCc1cc2c(nc(C3=CCS(=O)(=O)CC3)c3cc([C@H]4C[C@H](OCc5c(F)cccc5F)CN4C(=O)C4CC4)n([C@H]4[C@H]5CN[C@@H]4C5)c32)c(F)c1-c1cccc(Cl)c1Cl [Example 240] | ≤ 100 | 100 to 1000
Cc1nc2c(F)c(-c3cccc(Cl)c3Cl)c(CCC#N)cc2c2c1cc([C@H]1C[C@H](OC(=O)c3ccccc3)CN1C(=O)C1CC1)n2[C@H]1[C@H]2CN[C@@H]1C2 [Example 87] | ≤ 100 | ≤ 100
Cc1nc2c(F)c(-c3cccc(Cl)c3Cl)c(CCC#N)cc2c2c1cc([C@H]1C[C@H](OC[C@H]3C[C@@H](C#N)C3)CN1C(=O)C1CC1)n2[C@H]1[C@H]2CN[C@@H]1C2 [Example 403] | ≤ 100 | ≤ 100
Cc1nc2c(F)c(-c3cccc(Cl)c3Cl)c(CCC#N)cc2c2c1cc([C@H]1C[C@H](Oc3cccnn3)CN1C(=O)C1CC1)n2[C@H]1[C@H]2CN[C@@H]1C2 [Example 138] | ≤ 100 | ≤ 100
Cc1nc2c(F)c(-c3cccc(Cl)c3Cl)c(CCC#N)cc2c2c1cc([C@H]1C[C@H](n3cc(C4(C)CCCC4)nn3)CN1C(=O)C1CC1)n2[C@H]1[C@H]2CN[C@@H]1C2 [Example 386] | ≤ 100 | ≤ 100
